ChEMBL document CHEMBL1909046, “DrugMatrix in vitro pharmacology data”

Tests used:
[1] = target: Mitogen-activated protein kinase 14 (Homo sapiens, UniProt Q16539); set-up: species or system Escherichia coli;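 further: inhibition of p38alpha enzyme activity in a biochemical kinase assay, with myelin basic protein serving as substrate; in other assays of this panel Not Active means under 50% inhibition at 10 µM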
[2] = target: T1, Substance-K receptor (Homo sapiens, UniProt P21452); format: cell membranes, CHO, Membrane; details: cho; further: in other assays of this panel Not Active means under 50% inhibition at 10 µM
T1 sequence (P21452 whole entry): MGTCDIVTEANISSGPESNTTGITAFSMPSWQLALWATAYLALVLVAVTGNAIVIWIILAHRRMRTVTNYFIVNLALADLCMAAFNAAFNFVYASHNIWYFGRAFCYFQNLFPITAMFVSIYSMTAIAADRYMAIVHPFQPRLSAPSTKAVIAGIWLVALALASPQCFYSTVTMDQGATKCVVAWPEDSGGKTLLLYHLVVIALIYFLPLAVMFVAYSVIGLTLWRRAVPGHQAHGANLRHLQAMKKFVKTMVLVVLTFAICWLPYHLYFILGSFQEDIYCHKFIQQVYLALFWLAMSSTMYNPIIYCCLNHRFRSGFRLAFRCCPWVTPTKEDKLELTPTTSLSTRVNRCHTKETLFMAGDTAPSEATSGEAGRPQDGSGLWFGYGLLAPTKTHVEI

[3] = DRUGMATRIX: Sigma2 radioligand binding (ligand: [3H] Ifenprodil); format: cell membranes, Rattus norvegicus, Wistar, Brain, Membrane; details: Not Active = under 50% inhibition at 10 µM
[4] = target: D(1A) dopamine receptor (Homo sapiens, UniProt P21728); test: DRUGMATRIX: Dopamine D1 radioligand binding (ligand: [3H] SCH-23390); format: cell membranes, CHO, Membrane; details: Not Active = under 50% inhibition at 10 µM
Chain of D(1A) dopamine receptor (P21728 whole entry): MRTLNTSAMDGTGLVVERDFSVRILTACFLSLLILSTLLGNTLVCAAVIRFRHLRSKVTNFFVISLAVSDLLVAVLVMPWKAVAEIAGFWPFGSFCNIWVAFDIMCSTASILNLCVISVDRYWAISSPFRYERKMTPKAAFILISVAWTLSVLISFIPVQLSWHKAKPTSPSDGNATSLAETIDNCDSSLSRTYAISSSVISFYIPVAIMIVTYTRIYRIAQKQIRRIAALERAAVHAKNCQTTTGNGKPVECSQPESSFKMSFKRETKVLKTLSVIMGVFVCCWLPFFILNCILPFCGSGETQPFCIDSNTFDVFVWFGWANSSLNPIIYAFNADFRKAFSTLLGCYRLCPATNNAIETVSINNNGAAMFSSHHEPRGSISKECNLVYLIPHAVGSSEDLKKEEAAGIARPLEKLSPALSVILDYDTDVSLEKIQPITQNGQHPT

[5] = target: T2, Alpha-2A adrenergic receptor (Homo sapiens, UniProt P08913); format: cell membranes, Sf9, Membrane; further: in other assays of this panel Not Active means under 50% inhibition at 10 µM
T2 sequence (P08913 whole entry): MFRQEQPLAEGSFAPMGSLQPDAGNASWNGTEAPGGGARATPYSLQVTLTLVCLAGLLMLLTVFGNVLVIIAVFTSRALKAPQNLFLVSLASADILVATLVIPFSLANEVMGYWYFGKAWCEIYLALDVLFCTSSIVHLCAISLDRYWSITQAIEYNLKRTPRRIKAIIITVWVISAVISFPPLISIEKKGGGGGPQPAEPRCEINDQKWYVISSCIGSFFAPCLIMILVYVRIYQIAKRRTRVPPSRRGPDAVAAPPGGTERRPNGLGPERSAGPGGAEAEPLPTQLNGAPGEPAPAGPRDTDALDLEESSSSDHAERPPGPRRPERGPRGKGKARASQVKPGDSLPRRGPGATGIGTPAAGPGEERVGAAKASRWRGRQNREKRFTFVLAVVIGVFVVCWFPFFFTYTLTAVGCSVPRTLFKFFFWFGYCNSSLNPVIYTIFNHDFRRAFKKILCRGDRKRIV

Chain of Mitogen-activated protein kinase 14 (Q16539 whole entry): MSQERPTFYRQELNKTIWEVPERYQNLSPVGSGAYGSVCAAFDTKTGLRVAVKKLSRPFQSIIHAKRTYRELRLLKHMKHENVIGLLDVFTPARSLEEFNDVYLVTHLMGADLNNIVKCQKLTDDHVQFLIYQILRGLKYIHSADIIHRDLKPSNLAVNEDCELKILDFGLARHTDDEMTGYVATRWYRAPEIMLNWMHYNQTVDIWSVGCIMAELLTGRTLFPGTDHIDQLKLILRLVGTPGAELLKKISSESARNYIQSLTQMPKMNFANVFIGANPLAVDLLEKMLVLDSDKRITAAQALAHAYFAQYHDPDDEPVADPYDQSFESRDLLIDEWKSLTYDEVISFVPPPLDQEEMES

Row | Compound | IC50 [1] | IC50 [2] | IC50 [3] | Ki [3] | IC50 ([4]; cho) | IC50 ([5]; sf9) | IC50 ([3]; read-out: IC50) | Ki ([3]; read-out: Ki) | IC50 ([4]; read-out: IC50) | Ki ([4]; read-out: Ki) | IC50 ([5]; read-out: IC50) | Ki ([5]; read-out: Ki) | Ki [1] | Ki [2] | Ki ([4]; cho) | IC50 ([5]; sf9, read-out: IC50) | IC50 ([1]; read-out: IC50) | Ki ([5]; sf9)
1 | COCCc1ccc(OCC(O)CNC(C)C)cc1 (stereo not given) [METOPROLOL] | Not Active | Not Active | Not Active | Not Active | Not Active | Not Active | – | – | – | – | – | – | – | – | – | – | – | –
2 | CCn1cc(C(=O)O)c(=O)c2cc(F)c(N3CCNCC3)cc21 [NORFLOXACIN] | Not Active | Not Active | Not Active | Not Active | Not Active | Not Active | – | – | – | – | – | – | – | – | – | – | – | –
3 | NC1=NC(=O)C(c2ccccc2)O1 (stereo not given) [PEMOLINE] | Not Active | Not Active | Not Active | Not Active | Not Active | Not Active | – | – | – | – | – | – | – | – | – | – | – | –
4 | Nc1nc2c(ncn2CCC(CO)CO)c(=O)[nH]1 [PENCICLOVIR] | Not Active | Not Active | Not Active | Not Active | Not Active | Not Active | – | – | – | – | – | – | – | – | – | – | – | –
5 | C=C(C)C1(O)OC(=O)C=C1OC (stereo not given) [PENICILLIC ACID] | Not Active | Not Active | Not Active | Not Active | Not Active | Not Active | – | – | – | – | – | – | – | – | – | – | – | –
6 | CC1(C)S[C@@H]2[C@H](NC(=O)Cc3ccccc3)C(=O)N2[C@H]1C(=O)O [PENICILLIN G] | Not Active | Not Active | Not Active | Not Active | Not Active | Not Active | – | – | – | – | – | – | – | – | – | – | – | –
7 | C1CCC(C(CC2CCCCN2)C2CCCCC2)CC1 (stereo not given) [PERHEXILINE] | Not Active | Not Active | Not Active | Not Active | Not Active | Not Active | – | – | – | – | – | – | – | – | – | – | – | –
8 | CCOc1ccc(NC(C)=O)cc1 [PHENACETIN] | Not Active | Not Active | Not Active | Not Active | Not Active | Not Active | – | – | – | – | – | – | – | – | – | – | – | –
9 | CNNCc1ccc(C(=O)NC(C)C)cc1 [PROCARBAZINE] | Not Active | Not Active | Not Active | Not Active | Not Active | Not Active | – | – | – | – | – | – | – | – | – | – | – | –
10 | CN(C)CCCN1c2ccccc2Sc2ccccc21 [PROMAZINE] | Not Active | Not Active | – | – | – | – | 2540 nM | 1560 nM | 2460 nM | 1230 nM | 337 nM | 126 nM | – | – | – | – | – | –
11 | CC(O)CO (stereo not given) [PROPYLENE GLYCOL] | Not Active | Not Active | Not Active | Not Active | Not Active | Not Active | – | – | – | – | – | – | – | – | – | – | – | –
12 | CADMIUM ACETATE | Not Active | Not Active | Not Active | Not Active | Not Active | – | – | – | – | – | – | – | Not Active | Not Active | Not Active | 4560 nM | – | –
13 | LEAD (II) ACETATE | Not Active | Not Active | Not Active | Not Active | Not Active | – | – | – | – | – | – | – | Not Active | Not Active | Not Active | 3600 nM | – | –
14 | LIPOPOLYSACCHARIDE E. COLI O55:B5 | – | Not Active | Not Active | Not Active | Not Active | Not Active | – | – | – | – | – | – | – | Not Active | Not Active | – | 60.6 nM | Not Active
